Reference: PMC11887051, “Discovery of ONO-2920632 (VU6011887): A Highly Selective and CNS Penetrant TREK-2 (TWIK-Related K+ Channel 2) Preferring Activator In Vivo Tool Compound” (ACS Chemical Neuroscience, 2025)

Key:
TREK-1 [1] = target: T1, TREK-1 (Homo sapiens, UniProt O95069); set-up: method as in PMID 31072652; conditions: previously reported; cited from earlier work
T1 sequence (O95069 1-426): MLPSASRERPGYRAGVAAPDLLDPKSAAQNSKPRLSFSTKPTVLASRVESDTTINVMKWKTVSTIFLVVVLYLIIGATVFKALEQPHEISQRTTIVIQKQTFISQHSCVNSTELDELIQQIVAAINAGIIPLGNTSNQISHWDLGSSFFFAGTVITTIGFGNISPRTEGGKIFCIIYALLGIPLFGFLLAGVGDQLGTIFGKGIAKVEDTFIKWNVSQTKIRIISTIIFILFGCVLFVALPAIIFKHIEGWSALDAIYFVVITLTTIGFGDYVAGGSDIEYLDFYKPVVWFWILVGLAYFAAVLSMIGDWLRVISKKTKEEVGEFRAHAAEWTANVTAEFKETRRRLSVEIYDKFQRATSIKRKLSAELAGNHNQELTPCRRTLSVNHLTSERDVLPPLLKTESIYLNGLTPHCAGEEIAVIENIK

[2] = set-up: method as in PMID 31072652; conditions: previously reported; cited from earlier work
[3] = set-up: method as in PMID 31072652; conditions: previously reported; cited from earlier work; remark: listed apart in the source
TREK-2 [4] = target: T2, TREK-2 (Homo sapiens, UniProt P57789); set-up: method as in PMID 31072652; conditions: previously reported; cited from earlier work
T2 sequence (P57789 1-538): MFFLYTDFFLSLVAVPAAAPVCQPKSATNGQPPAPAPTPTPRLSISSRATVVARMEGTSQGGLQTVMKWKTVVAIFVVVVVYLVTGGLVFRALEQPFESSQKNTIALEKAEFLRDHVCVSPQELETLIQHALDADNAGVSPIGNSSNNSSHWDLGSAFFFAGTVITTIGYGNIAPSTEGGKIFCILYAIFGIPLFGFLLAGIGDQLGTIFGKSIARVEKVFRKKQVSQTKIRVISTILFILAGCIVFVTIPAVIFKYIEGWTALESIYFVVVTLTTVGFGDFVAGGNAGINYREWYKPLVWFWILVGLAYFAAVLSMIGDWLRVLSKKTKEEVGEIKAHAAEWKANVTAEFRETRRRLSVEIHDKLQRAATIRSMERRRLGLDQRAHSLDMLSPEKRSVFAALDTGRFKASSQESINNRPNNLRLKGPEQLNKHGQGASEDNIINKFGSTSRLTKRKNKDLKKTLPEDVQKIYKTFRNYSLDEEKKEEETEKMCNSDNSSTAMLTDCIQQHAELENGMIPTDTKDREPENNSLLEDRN

TREK-2 [5] = target: T2, TREK-2; test: TREK-2 thallium flux assay (hTREK-2/HEK); type: cell-based; set-up: expressed in transfected cells; host or cells: HEK293; conditions: for Emax: % activation relative to 10 µM BL-1249
Method: (§1) Procedures for Biological Experiments
TREK-1 and TREK-2 thallium flux assay protocol […]
HEK293 cells stably expressing human TREK-2 (hTREK-2/HEK) were constructed at Ono. hTREK-1/CHO or hTREK-2/HEK were plated in 384-well plates at a density of 1.0x10^4 cells/well or 2.0x10^4 cells/well, respectively, and cultured overnight. After the wash by HBSS + 20 mM HEPES buffer, cells were loaded with Thallos dye for 1 hour at room temperature. After the wash […]
(§2) dissolved with HBSS + 20mM HEPES buffer were added to each well. After 10 minutes incubation at room temperature, thallium stimulus buffer were added to each well and the fluorescent intensity are measured by Panoptic. The final thallium concentration was 0.36 mM in […]
(§3) TREK-1 or 0.24 mM in TREK-2, respectively. […]

TREK-1 [6] = target: T1, TREK-1; test: TREK-1 thallium flux assay (hTREK-1/CHO); type: cell-based; set-up: host or cells: CHO; conditions: for Emax: % activation relative to 10 µM BL-1249
Method: as §1
TREK-1 and TREK-2 thallium flux assay protocol
CHO cells stably expressing human TREK-1 (hTREK-1/CHO) were constructed at Evotec. […]
hTREK-1/CHO or hTREK-2/HEK were plated in 384-well plates at a density of 1.0x10^4 cells/well or 2.0x10^4 cells/well, respectively, and cultured overnight. After the wash by HBSS + 20 mM HEPES buffer, cells were loaded with Thallos dye for 1 hour at room temperature. After the wash […]
as §2, §3

mouse TREK-1 = target: T3, mouse TREK-1 (Mus musculus, UniProt P97438); test: mouse TREK-1 MPC assay; type: cell-based; conditions: manual patch clamp
T3 sequence (P97438 1-426): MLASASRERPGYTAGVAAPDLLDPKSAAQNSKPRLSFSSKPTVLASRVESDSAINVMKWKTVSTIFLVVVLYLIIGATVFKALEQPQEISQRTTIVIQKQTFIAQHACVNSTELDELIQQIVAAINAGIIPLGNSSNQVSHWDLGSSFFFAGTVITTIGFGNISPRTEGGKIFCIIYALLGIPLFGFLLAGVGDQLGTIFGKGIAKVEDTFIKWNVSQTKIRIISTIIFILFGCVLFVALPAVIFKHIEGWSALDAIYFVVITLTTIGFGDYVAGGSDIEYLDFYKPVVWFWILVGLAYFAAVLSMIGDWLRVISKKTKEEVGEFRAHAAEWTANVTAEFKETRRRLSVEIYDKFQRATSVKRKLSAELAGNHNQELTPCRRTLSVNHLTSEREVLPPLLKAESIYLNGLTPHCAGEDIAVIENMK

TASK-2 = test: human 86Rb flux K2P selectivity panel; type: cell-based; conditions: 86Rb flux K2P panel
mouse TREK-2 = target: T4, mouse TREK-2 (Mus musculus, UniProt Q8BUW1); test: mouse TREK-2 MPC assay; type: cell-based; conditions: mouse, manual patch clamp
T4 sequence (Q8BUW1 1-535): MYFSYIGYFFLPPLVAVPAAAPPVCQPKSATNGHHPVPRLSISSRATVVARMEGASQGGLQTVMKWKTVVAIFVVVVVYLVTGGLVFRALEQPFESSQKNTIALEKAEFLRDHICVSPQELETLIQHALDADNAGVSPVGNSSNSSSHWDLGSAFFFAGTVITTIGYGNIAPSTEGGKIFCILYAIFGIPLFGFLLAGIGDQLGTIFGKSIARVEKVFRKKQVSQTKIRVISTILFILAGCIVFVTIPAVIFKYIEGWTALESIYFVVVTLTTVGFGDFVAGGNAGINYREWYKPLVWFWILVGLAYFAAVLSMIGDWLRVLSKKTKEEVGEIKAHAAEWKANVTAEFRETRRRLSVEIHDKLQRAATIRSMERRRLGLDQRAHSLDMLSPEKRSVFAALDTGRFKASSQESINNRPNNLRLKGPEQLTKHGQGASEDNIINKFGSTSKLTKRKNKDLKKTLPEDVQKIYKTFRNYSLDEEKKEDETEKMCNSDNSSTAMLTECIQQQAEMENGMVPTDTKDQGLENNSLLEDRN

TREK-1 [7] = target: T1, TREK-1; test: human 86Rb flux K2P selectivity panel; type: cell-based; conditions: data is not shown
TASK-3 = test: human 86Rb flux K2P selectivity panel; type: cell-based; conditions: 86Rb flux K2P panel
TWIK-2 = test: human 86Rb flux K2P selectivity panel; type: cell-based; conditions: 86Rb flux K2P panel
TASK-1 = test: human 86Rb flux K2P selectivity panel; type: cell-based; conditions: 86Rb flux K2P panel
TREK-2 [8] = target: T2, TREK-2; test: human 86Rb flux K2P selectivity panel; type: cell-based; conditions: data is not shown
TRAAK = test: human 86Rb flux K2P selectivity panel; type: cell-based; conditions: 86Rb flux K2P panel
TRESK = target: T5, TRESK (Homo sapiens, UniProt Q7Z418); test: human 86Rb flux K2P selectivity panel; type: cell-based; conditions: 86Rb flux K2P panel
T5 sequence (Q7Z418 1-384): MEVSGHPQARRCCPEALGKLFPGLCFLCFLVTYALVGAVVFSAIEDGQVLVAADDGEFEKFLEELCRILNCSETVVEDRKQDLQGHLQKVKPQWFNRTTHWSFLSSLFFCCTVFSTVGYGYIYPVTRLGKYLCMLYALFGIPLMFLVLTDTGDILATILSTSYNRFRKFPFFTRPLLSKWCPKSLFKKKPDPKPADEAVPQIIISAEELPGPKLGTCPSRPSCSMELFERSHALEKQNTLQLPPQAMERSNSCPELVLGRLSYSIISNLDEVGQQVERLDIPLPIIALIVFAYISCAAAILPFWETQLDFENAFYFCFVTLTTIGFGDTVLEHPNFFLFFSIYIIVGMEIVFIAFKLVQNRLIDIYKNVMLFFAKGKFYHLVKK

[9] = control compound, table footnote

Row | EC50 (TREK-2 [5]) [µM] | Emax (TREK-2 [5]) [%] | EC50 (TREK-1 [6]) [µM] | Emax (TREK-1 [6]) [%] | Structure (SMILES) | TREK-1 Emax (TREK-1 [1]) [%] | rat plasma fu [2] | rat CLhep (predicted hepatic clearance) [3] [mL/min/kg] | TREK-2 Emax (TREK-2 [4]) [%] | other results
1 |  |  |  |  | O=C(Nc1cc(F)c(Br)cc1C(=O)O)c1ccc(SC(F)(F)F)cc1 [Compound 8] | 101 | 0.041 | 35.5 | 84 | 
2 | 0.41 | 158 | 1.5 | 42 | COc1cc(OC(F)(F)F)ccc1CNC(=O)c1ccc(-n2cncn2)nc1 [Compound 14b] |  |  |  |  | Fold TREK-2 (TREK-2 [5]; TREK-2 preference over TREK-1, thallium flux): 3.7 fold
3 |  |  |  |  | c1ccc(-c2nnn[nH]2)c(Nc2cccc3c2CCCC3)c1 [BL-1249, (5,6,7,8-tetrahydro-naphthalen-1-yl)-[2-(1H-tetrazol-5-yl)-phenyl]-amine, reference compound] | 109 ± 14 | < 0.001 | > 50.9 | 133 ± 23 | IC50 (TREK-2 [5]; [9]): 7.3 µM; IC50 (TREK-1 [6]; [9]): 5.2 µM
4 | 0.36 | 109 | ~1.1 | 20 | Cc1cc(OC(F)(F)F)ccc1CNC(=O)c1ccc(-n2cncn2)nc1 [Compound 14c] |  |  |  |  | EC50 (mouse TREK-1): 2.8 µM; Emax (mouse TREK-1): 31%; selectivity against TASK-2 over TREK-2 (TASK-2): > 43 fold; EC50 (mouse TREK-2): 0.31 µM; Emax (mouse TREK-2): 72%; activity at TREK-1 in 86Rb flux panel (TREK-1 [7]): partial TREK-1 activator; selectivity against TASK-3 over TREK-2 (TASK-3): > 43 fold; selectivity against TWIK-2 over TREK-2 (TWIK-2): > 43 fold; selectivity against TASK-1 over TREK-2 (TASK-1): > 43 fold; activity at TREK-2 in 86Rb flux panel (TREK-2 [8]): submicromolar TREK-2 activator; selectivity against TRAAK over TREK-2 (TRAAK): > 43 fold; selectivity against TRESK over TREK-2 (TRESK): > 43 fold
